According to publication PMC8200237, “New Oxaliplatin-Pyrophosphato Analogs with Improved In Vitro Cytotoxicity” (Molecules, 2021):
Like-named read-outs stand apart in the source and are kept apart here.

Assays:
[1] = system: MDA MB 231 human breast cancer cells; assay: MTT cell viability assay, MDA MB 231; assay type: cell-based; conditions: MTT test, 72 h; read-out: IC50 (µM) ± S.D. MDAMB231
Experimental: (§1) The in vitro cytotoxicity of the Pt-pyrophosphato complexes (1, 2, 3, and 4) was evaluated on a panel of human cancer cell lines and compared to that of cisplatin and oxaliplatin. Cell lines representative of colon (HCT-116), prostate (PC3), breast (MDA-MB231), and […] (OV2008) carcinomas were included.
(§2) The number of living cells was evaluated by the 3-(4,5-dimethylthiazol-2-yl)-2,5-diphenyltetrazolium bromide (MTT) assay. Briefly, HCT116 human colon cancer cells, PC3 human prostate cancer cells, OV2008 human ovarian cancer cells, and MDA MB 231 human breast cancer cells were plated in 96-well plates at a density of ~5000 cells/well. After one day of incubation at 37 °C in a humid atmosphere with 5% CO2, the culture medium was replaced with 100 µL of fresh medium (control cells) or medium containing different concentrations of the test compounds in the range 1.56–100 µM. Untreated cells were used as positive controls. After the incubation period of 72 h, 10 µL of a 0.5% (w/v) MTT/PBS solution was added to each well and the incubation was prolonged for a further 2 h. After this period, the medium was removed and replaced with 100 µL of DMSO. The absorbance of each well was measured by a microplate reader (Wallac Victor3, 1420 Multilabel Counter, Perkin-Elmer, Singapore). Each compound concentration was tested in triplicate, and results were presented as percentage of the control value. IC50 values were calculated using non-linear regression in GraphPad Prism 5.01 (San Diego, CA, USA). […]
(§3) Table S1. In vitro cytotoxicitya […]
(§4) aCells (3–5·10^3 cells […]) were treated for 72 h with increasing concentrations of the tested compounds. Cytotoxicity was assessed by the MTT test. IC50 values were calculated by the four parameter logistic model (p < 0.05). S.D. = standard deviation. OXP = oxaliplatin, CDDP = cisplatin.

[2] = system: HCT116 human colon cancer cells; assay: MTT cell viability assay, HCT116; assay type: cell-based; conditions: MTT test, 72 h; read-out: IC50 (µM) ± S.D. HCT116
Experimental: as §1, §2, §3, §4

[3] = system: PC3 human prostate cancer cells; assay: MTT cell viability assay, PC3; assay type: cell-based; conditions: MTT test, 72 h; read-out: IC50 (µM) ± S.D. PC3
Experimental: as §1, §2, §3, §4

[4] = Stability in acidic environment by 31P NMR (pH* 6.5); assay type: physicochemical; conditions: D2O, HEPES buffer 50 mM, pH* 6.5, 120 mM NaCl, 37 °C
Experimental: To simulate the acidic environment surrounding cancer tissues, the stability of 1 and 2 was also investigated at pH* = 6.5 and 37 °C by ^31P NMR spectroscopy.
(§5) The stability of compounds 1 and 2 at 37 °C in buffered solutions was assessed by ^31P NMR spectroscopy. Each compound (~2 mg) was dissolved in 0.8 mL of D2O containing 50 mM 4-(2-hydroxyethyl)-1-piperazineethanesulfonic acid) (HEPES) buffer (pH* = 7.4 or pH* = 6.5) and 120 mM NaCl. The resulting solutions were transferred into NMR tubes and maintained at 37 °C. ^31P NMR spectra were recorded from time to time over a period of one month.

[5] = 31P NMR chemical shift/pH titration, acidity constants; assay type: physicochemical; conditions: D2O, 31P NMR titration; for pKa1 (first inflection point, pH*): first deprotonation step; for pKa2 (second inflection point, pH*): second deprotonation of coordinated pyrophosphate
Experimental: The pH titration of complexes 1 and 2 was carried on by recording ^31P NMR spectra at different pH* values (Figure 5).
Acidity constants for complexes 1 and 2 were determined by ^31P NMR chemical shift/pH titrations. Either compound 1 or 2 (0.0047 mmol) was dissolved in 0.550 mL of D2O and transferred into an NMR tube. The pH* of the sample was adjusted to the required value by addition of DClO4 (10, 1.0, 0.5, 0.1, or 0.05 M) or NaOD (1.0, 0.5, 0.1, or 0.05 M) solutions, and the pH* value was measured by using a 3 mm diameter electrode for NMR tubes. No control of the ionic strength was performed. The pH titration curves were fitted to the Henderson−Hasselbalch equation using the program KaleidaGraph (version 3.5, Synergy Software, Reading, PA, USA).

[6] = Stability in physiological conditions by 31P NMR (pH 7.4); assay type: physicochemical; conditions: D2O, HEPES buffer 50 mM, pH 7.4, 120 mM NaCl, 37 °C
Experimental: To investigate the stability of 1 and 2 in physiological-like conditions, their solutions in D2O containing HEPES buffer (50 mM, pH = 7.4) and NaCl (120 mM) were monitored at 37 °C by ^31P NMR spectroscopy. […] However, overall, also compound 2 can be considered stable for the time necessary to perform the in vitro cytotoxicity tests (72 h, see following section).
as §5

[7] = system: panel of four human cancer cell lines; assay: MTT cytotoxicity, average over the four cell lines; assay type: cell-based; conditions: average over HCT116, PC3, OV2008, MDAMB231; MTT test, 72 h; read-out: IC50 (µM) ± S.D. Average
Experimental: as §1
From this point of view, oxaliplatin represents a better reference compound, with the bidentate oxalato ligand being more similar to the bidentate pyrophosphato ligand.
as §2, §3, §4

[8] = system: OV2008 human cervical cancer cells; assay: MTT cell viability assay, OV2008; assay type: cell-based; conditions: MTT test, 72 h; read-out: IC50 (µM) ± S.D. OV2008
Experimental: as §1, §2, §3, §4

[9] = system: HCT116 cells; assay: Annexin V/PI apoptosis assay by flow cytometry; assay type: cell-based, human
Experimental: In order to obtain information on tumor cells’ death, the Annexin V/propidium iodide (PI) assay was used in flow cytometry analyses. Annexin V provides a very sensitive method for detecting cellular apoptosis, while PI is commonly used to detect necrotic or late apoptotic cells (when positive to Annexin too). The FITC Annexin V staining was carried out after 24 and 48 h of incubation of HCT116 cells with the Pt-pyrophosphato complexes (1–4) or oxaliplatin/cisplatin (used as reference compounds) at the IC50 concentrations (Supplementary Materials, Table S1). The two-dimensional dot plots can be divided into four quadrants, corresponding to: (i) viable cells, which are negative to both probes (lower left quadrant; PI/FITC −/−), (ii) early apoptotic cells, which are PI-negative and Annexin V-positive (lower right quadrant; PI/FITC −/+), (iii) late apoptotic cells, which are Annexin- and PI-positive (upper right quadrant; PI/FITC +/+), and (iv) necrotic cells, which are PI-positive and Annexin-negative (upper left quadrant; PI/FITC +/−).
The Annexin V/PI assay was conducted as previously described in order to investigate the mechanism of cell death induced by the various compounds on HCT116 cells. […]

[10] = cited from earlier work
[11] = cited from earlier work; remark: listed apart in the source
[12] = free pyrophosphate, cited from earlier work

Compound	IC50 [1] [µM]	IC50 [2] [µM]	IC50 [3] [µM]	time at which a small 31P NMR signal of free pyrophosphate is first observed [4] [h]	pKa1 (first inflection point, pH*) [5]	pKa2 (second inflection point, pH*) [5]	time at which a small 31P NMR signal of free pyrophosphate is first observed [6] [h]	IC50 [7] [µM]	IC50 [8] [µM]	% viable cells (lower left quadrant, PI-/Annexin V-) [9] [%]	pKa1 [10]	pKa2 [10]	stability in physiological conditions [11]	pKa1 ([12]; tetrabasic acid)	pKa2 [12]	pKa3 [12]	pKa4 [12]
NC1CC=CCC1N.O=P1(O)[O][Pt][O]P(=O)(O)O1 (racemic) [Compound 2, [Pt(dihydrogenpyrophosphato)(1,2-DACHEX)]]	39 ± 4	20 ± 2	100 ± 6	96	2.02	4.23	120	47 ± 6	30 ± 3								
[NH2][Pt]([NH2])([Cl])[Cl] [CDDP, cisplatin, reference compound]	2 ± 1	9 ± 2	9 ± 3					6	4 ± 1								
O=P1([O-])OP(=O)([O-])[O][Pt]2([NH]C3CCCC(C3)[NH]2)[O]1.[Na+].[Na+] (stereo not drawn) [Compound 1, Na2[Pt(pyrophosphato)(cis-1,3-DACH)]]	26 ± 3	21 ± 2	29	168	2.28	4.55	672	23	15 ± 2								
N[C@@H]1CCCC[C@H]1N.O=P([O-])(O)OP(=O)([O-])O.[Pt+2] [Compound 3, [Pt(dihydrogenpyrophosphato)(1R,2R-DACH)], reference compound]	91 ± 5	19 ± 4	100 ± 8					60 ± 8	29 ± 5	84.912	2.06	4.40	quite stable				
O=P1(O)OP(=O)(O)[O][Pt]2([NH]C3CCC(CC3)[NH]2)[O]1 (stereo not drawn) [Compound 4, [Pt(dihydrogenpyrophosphato)(cis-1,4-DACH)]]	100 ± 7	44 ± 3	100 ± 5					72 ± 7	46 ± 5		2.03	4.47	quite stable				
O=C1[O][Pt]2([NH][C@@H]3CCCC[C@H]3[NH]2)[O]C1=O [OXP, oxaliplatin]	93 ± 6	72	100 ± 5					80	54 ± 4								
O=P(O)(O)OP(=O)(O)O [Pyrophosphate]														0.85	1.49	5.77	8.22
